Test results as given in patent publication US20120302636A1, “METHOD OF TREATING A DISORDER ASSOCIATED WITH MTP” (priority 2009, published 2012).
Read-outs that look alike come from different tables or passages of the source.

Assays:
MTP = MTP (Homo sapiens, UniProt P55157)
[1] = Example 1: plasma and urine concentrations by LC/MS/MS
[2] = Example 3: pharmacokinetics; format: in vivo, human; details: both active groups
[3] = in vivo
Description: This example involved a clinical study of the compound of formula (I), which was a randomized, double-blind, placebo-controlled, parallel group study to evaluate the efficacy of the compound of formula (I) administered twice daily for twelve weeks in obese subjects.

[4] = Example 7: ascending dose study in obese subjects, pharmacokinetics
Description: This example involved a clinical study of the compound of formula (I), which was a randomized, double-blind, placebo-controlled, ascending dose study to evaluate the safety, tolerability and pharmacokinetics/pharmacodynamics of the compound of formula (I) tablets administered twice daily for two weeks in obese subjects.
The subjects were separated into four arms of nine (one with ten) test subjects (which were administered the compound of formula (I)) and three placebo subjects.

[5] = Example 6: pharmacokinetics; format: in vivo, human
Excerpt: Originally, the study was planned as 4 sequential cohorts of healthy male Caucasian subjects (Cohorts 1 to 4) followed by a cohort of male Caucasian patients with elevated triglycerides (HTG patients, Cohort 5). An additional cohort of healthy male Caucasian subjects (Cohort 4.1) was enrolled into the study (6 cohorts in total). The cohorts were as follows: Cohorts 1 to 4.1 had healthy Caucasian males, aged 18-45 years with a body weight of 60-100 kg and body mass index (BMI) between 19-28 kg/m^2 at screening and fasting triglycerides less than 1.69 mmol/L (less than 150 mg/dL) at the screening visit and Day-3. Cohort 5 had Caucasian males, aged 18-50 years with a body weight of 60-115 kg and BMI less than 35 kg/m^2 at screening and with elevated fasting triglycerides (TG≧1.69 mmol/L and <5.62 mmol/L; ≧150 mg/dL and <500 mg/dL) at the screening visit and Day-3.
The planned treatment for Cohorts 1 to 4 was twice daily administration of 5 mg, 10 mg or 15 mg the compound of formula (I)/placebo, or once daily administration of 30 mg the compound of formula (1)/placebo. […] As only the compound of formula (I) 5 mg capsules were supplied for this study, doses were administered once daily to determine the maximum tolerated dose, and the planned doses for each subsequent cohort were amended based on the safety and tolerability data obtained from the preceding cohort. The dose level and dosing schedule planned for the patients in Cohort 5 was determined by the maximum tolerated dose and dosing schedule as reported from the planned Cohorts 1 to 4.1.
Twelve healthy male Caucasian subjects were enrolled in each of Cohorts 1 to 4.1; dose cohorts were randomized in a ratio 9:3 to receive the compound of formula (I) or placebo, respectively, at the dose level associated with that cohort. Twelve male Caucasian patients with elevated triglycerides were randomized in a ratio of 8:4 to receive the compound of formula (I) or placebo, respectively, at the maximum tolerated dose level and dosing schedule.

[6] = Example 2: plasma and urine pharmacokinetics; format: in vivo, human
Description: Each tablet contained 5 mg (BID), 10 mg (QD), 20 mg (QD), or 30 mg (QD).

[7] = Example 5: pharmacokinetics; format: in vivo, human
Description: Fifty-two Japanese patients with hyperlipidemia (LDL-C between 140 and 220 mg/dL; TG≦400 mg/dL) participated in the study. […] One group received a fixed dose of 2 mg per tablet through the entire study. The other group received escalating doses of 0.5 mg (weeks 1-4), 1 mg (weeks 5-8), and 2 mg (weeks 9-12). For the efficacy analysis, 50 subjects were observed (25 in the fixed-dose group and 25 in the dose escalation group).
The objective of this study was preliminary evaluation of the efficacy (based on serum lipid levels), safety, and pharmacokinetics of the compound of formula (I) administered orally twice daily after breakfast and supper for 12 weeks as a fixed dose (4 mg/day) or escalating dose (1 mg/day, 2 mg/day and 4 mg/day) regimen in patients with hyperlipidemia.

MTP, sequence (P55157 19-894, species assumed): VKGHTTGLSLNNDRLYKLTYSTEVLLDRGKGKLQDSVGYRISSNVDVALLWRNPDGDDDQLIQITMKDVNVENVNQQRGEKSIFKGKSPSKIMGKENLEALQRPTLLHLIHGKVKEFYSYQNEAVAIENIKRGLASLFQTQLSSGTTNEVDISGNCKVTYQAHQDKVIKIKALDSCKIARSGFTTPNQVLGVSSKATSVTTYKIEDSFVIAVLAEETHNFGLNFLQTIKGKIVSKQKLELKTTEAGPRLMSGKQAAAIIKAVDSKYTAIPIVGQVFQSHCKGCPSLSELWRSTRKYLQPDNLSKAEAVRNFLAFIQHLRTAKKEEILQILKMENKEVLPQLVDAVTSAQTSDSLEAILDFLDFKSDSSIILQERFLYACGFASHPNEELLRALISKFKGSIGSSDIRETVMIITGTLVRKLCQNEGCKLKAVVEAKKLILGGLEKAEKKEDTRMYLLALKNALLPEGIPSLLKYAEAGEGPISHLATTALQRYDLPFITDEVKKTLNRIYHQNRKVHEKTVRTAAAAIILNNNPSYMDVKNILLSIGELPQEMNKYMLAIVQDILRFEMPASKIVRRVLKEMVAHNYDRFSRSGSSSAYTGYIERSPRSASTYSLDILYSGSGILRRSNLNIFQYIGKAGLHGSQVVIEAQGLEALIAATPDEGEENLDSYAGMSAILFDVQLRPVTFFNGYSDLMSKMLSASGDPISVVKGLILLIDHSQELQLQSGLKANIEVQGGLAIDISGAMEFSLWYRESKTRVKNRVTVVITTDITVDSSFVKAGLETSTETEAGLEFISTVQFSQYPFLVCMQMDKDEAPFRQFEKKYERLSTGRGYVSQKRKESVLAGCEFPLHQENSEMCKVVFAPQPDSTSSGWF
MTP, sequence (P07237 18-508 partner, species assumed): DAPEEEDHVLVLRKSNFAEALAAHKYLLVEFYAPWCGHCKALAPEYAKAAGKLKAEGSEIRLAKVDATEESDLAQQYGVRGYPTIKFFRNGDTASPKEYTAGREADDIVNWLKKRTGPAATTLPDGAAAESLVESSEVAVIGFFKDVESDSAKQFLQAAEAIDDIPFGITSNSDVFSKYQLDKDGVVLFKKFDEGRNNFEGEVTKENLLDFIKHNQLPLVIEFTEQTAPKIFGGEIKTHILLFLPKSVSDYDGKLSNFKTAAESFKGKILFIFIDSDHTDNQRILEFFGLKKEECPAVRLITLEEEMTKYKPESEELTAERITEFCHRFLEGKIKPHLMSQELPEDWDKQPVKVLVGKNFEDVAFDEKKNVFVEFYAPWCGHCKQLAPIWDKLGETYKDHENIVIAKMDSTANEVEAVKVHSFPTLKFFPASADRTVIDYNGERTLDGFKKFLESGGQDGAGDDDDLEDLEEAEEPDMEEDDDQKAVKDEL

## CN(C)C(=O)c1cc(CC(=O)O)ccc1NC(=O)c1ccccc1-c1ccc(C(F)(F)F)cc1 [metabolite M1, 2-(3-(dimethylcarbamoyl)-4-(4′-(trifluoromethyl)biphenyl-2-ylcarboxamido)phenyl)acetic acid]
MTP
  MTP inhibitory activity: no MTP inhibitory activity
MTP; listed as M1
  MTP inhibitory activity: inactive
[1]; 5 mg group, Day 2
  mean Cmin: 8.33 ng/mL
[1]; 5 mg group, Day 6
  mean Cmin: 25.97 ng/mL
  mean Cmin relative to Day 2: 3.12 times
[1]; 15 mg group, Day 2
  mean Cmin: 33.57 ng/mL
[1]; 15 mg group, Day 8
  mean Cmin: 181.90 ng/mL
  mean Cmin relative to Day 2: 5.42 times
[1]; 5 and 15 mg groups
  excretion in urine (metabolite): excreted in urine in all subjects
[1]; all subjects receiving compound
  detection of metabolite in plasma: detected in plasma of all subjects
[2]
  plasma metabolite M1: quantifiable
[3]
  mean trough concentration of M1: increased in a dose-related manner
[4]; 1 mg group
  mean t1/2: 70.1 h
[4]; 1 and 2.5 mg groups
  time to reach steady-state: 7 days
[4]; 1 to 5 mg
  Cmax and AUC0-τ dose proportionality (M1): dose proportional increase
[4]; 3.5 and 5 mg groups
  time to reach steady-state: 5 days
[5]; 5 mg BID, healthy
  mean apparent terminal half-life: approximately 27 h
[5]; 5 mg, Cohort 5 vs Cohort 1
  systemic availability (AUC0-τ and Cmax) in patients vs subjects with normal triglycerides: appeared to be greater
[5]; 5 mg, HTG patients
  mean apparent terminal half-life: approximately 30 h
[5]; 5 to 20 mg QD and BID, healthy subjects and patients
  time to steady-state: ~8 days
[5]; 5 to 20 mg QD, healthy
  extent of systemic exposure, dose proportionality: greater than dose-proportional
[5]; 14 days administration, adjusted for molecular weight
  urinary recovery up to 72 h post-last dose: up to 20 % of the total administered dose
[5]; first administration
  urinary recovery: less than 8 % of the administered dose
[6]; 10, 20, 30 mg QD, initial dose Day 1
  Cmax and AUC0-24hr dose proportionality (M1): greater than a dose-proportional
[6]; Day 2 to 14, all groups
  Cmin of the metabolite M1: quantifiable
[6]; after initial dose on Day 1, all groups
  plasma metabolite M1: quantifiable
[6]; all groups
  metabolite M1 in urine: excreted in urine
[6]; final dose on Day 14
  Cmax and AUC dose proportionality (M1): dose-proportional
[7]; dose escalation group, Week 10
  mean Cmin: 12.15 ng/mL
[7]; dose escalation group, Week 10, females
  mean Cmin: 12.06 ng/mL
[7]; dose escalation group, Week 10, males
  mean Cmin: 12.28 ng/mL
[7]; dose escalation group, Week 12
  mean Cmin: 13.47 ng/mL
[7]; dose escalation group, Week 12, females
  mean Cmin: 15.28 ng/mL
[7]; dose escalation group, Week 12, males
  mean Cmin: 10.76 ng/mL
[7]; fixed-dose group, Week 10
  mean Cmin: 12.20 ng/mL
[7]; fixed-dose group, Week 12
  mean Cmin: 10.74 ng/mL
